One assay relates to Sonchus arvensis. Kind of assay: Herbicidal activity against Sonchus arvensis (field sow-thistle) assessed as induction of leaf necrotic lesions measured 48 hr post compound treatment by leaf disk- puncture bioassay.
Another assay concerns Cirsium arvense. Kind of assay: Herbicidal activity against Cirsium arvense (Canada thistle) assessed as induction of leaf necrotic lesions measured 48 hr post compound treatment by leaf disk- puncture bioassay.

The source made the active and inactive calls. No cut-off for these calls is given here.

`C=C1[C@@H](C)[C@H]2[C@H](Cc3ccccc3)NC(=O)[C@]23OC(=O)/C=C/[C@H](O)CCC[C@@H](C)C/C=C/[C@H]3[C@@H]1O`: the outcome in the assay on Sonchus arvensis and in the assay with Cirsium arvense was Active.
Take `C[C@H]1C/C=C/[C@H]2[C@@H]3O[C@]3(C)[C@@H](C)[C@H]3[C@H](Cc4ccccc4)NC(=O)[C@]32OC(=O)/C=C/[C@@H](O)CCC1`: the outcome with Sonchus arvensis and in the assay on Cirsium arvense was Active.
Regarding `O=Cc1ccc(O)cc1`, the result with Sonchus arvensis and in the assay with Cirsium arvense was inactive.
As for `C[C@H]1C/C=C/[C@H]2C=C(CO)[C@@H](C)[C@H]3[C@H](Cc4ccccc4)NC(=O)[C@]32OC(=O)/C=C/[C@H](O)CCC1`, the result with Sonchus arvensis and with Cirsium arvense was Active.
In the case of `C=C1[C@@H](C)[C@H]2[C@H](Cc3ccccc3)NC(=O)[C@]23OC(=O)/C=C/CC(O)CC[C@@H](C)C/C=C/[C@H]3[C@@H]1O` (stereo partly specified), the result with Cirsium arvense was Active.
Consider `C=C1[C@@H](C)[C@H]2[C@H](Cc3ccccc3)NC(=O)[C@]23C(=O)/C=C/[C@H](O)CCC[C@@H](C)C/C=C/[C@H]3[C@@H]1O`, for which the result in the assay on Sonchus arvensis and with Cirsium arvense was Active.
